Read-outs that look alike come from different tables or passages of the source.
Legend:
DU145 [1] = assay: Cell cycle analysis (PI, flow cytometry), DU145; assay type: cell-based; details: vs vehicle
Protocol: (§1) The effect of RP-010 on the cell cycle phases and function was determined using cell cycle analysis with PI staining, followed by flow cytometry. The cells were incubated with either vehicle or RP-010 (0.5, 1 or 2 µM) for 24 h. After incubation overnight, the cells were collected, washed and resuspended as an ice-cold PBS suspension. The DNA was stained with PI for at least 15 min on ice. A FACS Calibur flow cytometer from BD Biosciences (San Jose, CA, USA) was used to determine the distribution of the cells following incubation with vehicle or RP-010. Finally, the data were viewed and analysed using FlowJo v10.2 software from FlowJo LLC (Ashland, OR, USA).

zebrafish = assay: Zebrafish toxicity model; assay type: in vivo
Protocol: The zebrafish toxicity studies were conducted as previously described. Five days-post fertilization larvae (5 fish/well) were exposed to vehicle or RP-010 (0, 0.3, 1, 3, 6, and 10 µM). Subsequently, the zebrafish were observed visually, and pictures were taken at 24- and 48-hour post exposure (hpe). […] The zebrafish studies were approved by the University of Toledo Institutional Animal Care and Use Committee (#105414, approved on 10/2018).

DU145 [2] = assay: Colony formation assay, DU145; assay type: cell-based; details: 1 or 2 µM, vs vehicle
Protocol: This assay was performed as previously described. The DU145 and PC-3 cells were incubated with RP-010 (1 or 2 µM) for 24 h. […], the medium was discarded and cells were trypsinized with 0.25% trypsin, 2.21-mM EDTA, and then harvested, counted, and reseeded in 6-well plates at a low density (500 cell/well). The cells were allowed to form colonies for 10–14 days at 37 °C, with the medium being changed every other day. Subsequently, methanol was used to fix the colonies formed in each plate, followed by staining the colonies with 0.1% crystal violet dye for 30 min. Finally, colonies were viewed and counted under an EVOS microscope (Themo Fisher Scientific, Wayne, MI, USA). The colony formation rate equation was applied for each compound: Colony formation rate = the number of colonies/numbers of seeded cells × 100%.

PC-3 [3] = assay: Transwell migration assay, PC-3; assay type: cell-based; details: 24 h
Protocol: The assay was done as previously described. The effect of RP-010, (0.5, 1 or 2 µM) on the migration of PC cells was tested using 24 trans-well inserts with an […] pore size. The addition of the insert to the well forms two chambers (upper and lower), where the upper chamber was used to grow the cells on the porous membrane. The lower chamber was filled with 600-μL cell-free DMEM medium. 200-μL of the cell suspension was added to each insert, and cells allowed to attach for 1 h. The test compound was added in different concentrations and incubated with the cells for 24 h. […] Finally, the remaining migrated cells were fixed by methanol, and stained with 0.1% crystal violet dye and counted with an EVOS microscope. The number of migrated cells was counted for the cultures incubated with vehicle or RP-010.

DU145 [4] = assay: MTT cytotoxicity assay, DU145 prostate cancer cells; assay type: cell-based; details: means ± SDs of three independent experiments, read-out: IC50 ± SD, Prostate Cancer Cells, DU145
Protocol: All the cells were cultured as adherent monolayers in culture flasks, and were used to determine the anti-cancer efficacy of RP-010. DMEM supplemented with 4.5 g of glucose, 10% fetal bovine serum (FBS) and 1% penicillin/streptomycin, was used to augment cell growth. Finally, the cells were incubated and grown in a humidified incubator containing 5% CO2 at 37 °C [50]. […] Cells were obtained from frozen stocks and cell passaging (up to P4) was performed at 80% cell confluency, using PBS and trypsin + 2.2-mM EDTA.
MTT assays were used to determine the cytotoxicity of the RP compounds, to PC cell lines, as previously described.

PC-3 [5] = assay: Cell cycle analysis (PI, flow cytometry), PC-3; assay type: cell-based; details: 0.5, 1 or 2 µM
Protocol: as §1

PC-3 [6] = assay: Oxidative stress (H2DCFDA fluorescence), PC-3; assay type: cell-based; details: 1, 2 and 4 µM, 24 h, vs vehicle
Protocol: (§2) The compound 2′,7′-dichlorofluorescin (H2DCFDA) was used to detect changes in the oxidative stress status, as previously described in PC-3 and DU145. […] The cells were then washed 3 times with 1× PBS for 5 min each. The level of reactive oxygen species was then measured, based on the fluorescence level of oxidized H2DCFDA dye (excitation at 485 nm and emission at 535 nm), using an EVOS digital fluorescent microscope at 40×.

DU145 [7] = assay: Oxidative stress (H2DCFDA fluorescence), DU145; assay type: cell-based; details: 0.5, 1, 2 or 4 µM, 24 h, vs vehicle
Protocol: as §2

[8] = tested on: Wnt/β-catenin signaling pathway proteins in DU145 cells; assay: Western analysis of Wnt/β-catenin signaling pathway proteins, DU145; assay type: cell-based
Protocol: DU145 cells were incubated with RP-010 ((1 or 2 µM) for 24 h. Thereafter, the cells were subjected to a two-step lysis process to extract and separate the cytosolic and the nuclear proteins, as previously described. Next, protein separation for both cytosolic and nuclear proteins was achieved by electrophoresing the samples through acrylamide SDS-PAGE gels, followed by transfer to a PVDF membrane. The PVDF membrane was then incubated overnight with the following primary antibodies: rabbit α-tubulin, 1:4000 dilution, rabbit BAX (1:1000), rabbit BAK (1:1000), rabbit cytochrome c (1:1000), rabbit PARP (1:5000), rabbit β-Catenin (1:4000), rabbit DVL3 (1:4000), rabbit LRP-6 (1:1000), rabbit P-LRP-6 (1:1000), rabbit c-Myc (1: 4000), rabbit cyclin B1 (1:2000), rabbit Wnt 5a (1:1000), rabbit naked 1 and naked 2 (1:1000), mouse E-cadherin (1:4000), mouse N-cadherin (1:4000), mouse β-actin (1:5000) and rabbit histone (1:3000). Finally, protein expression levels were determined as described previously. In the Figure 3, Figure 5 and Figure S8, the protein blots above β-actin were cytosolic lysates, while all the proteins below β-actin and above histones (loading controls) were nuclear lysates.

HCT115 = tested on: HCT115; design: method as in PMID 28759878; details: colon cancer cell line; cited from earlier work
[9] = DU145, 1 or 2 μM, 24 h, p < 0.01

With `COc1ccc(-c2nc3sc4c(c3c(=O)[nH]2)CCCC4)cc1` [RP10] the “Cell cycle distribution, G1 phase” value (DU145 [1]; 0.5, 1 or 2 µM) was “significant shift from G1 phase”, the “Cell cycle distribution, G2 phase” value (DU145 [1]; 1 or 2 µM, p < 0.05) was “significantly accumulated in the G2 phase” and the “Concentration well tolerated / without significant toxic effects” value (zebrafish; zebrafish) was “up to 6 µM”. For the same compound, the Mortality (zebrafish; zebrafish larvae, 0.3, 1, 3, 6 or 10 µM, 24 and 48 h exposure) was “did not significantly increase”, the “Size of the colonies” value (DU145 [2]) was “significantly decreased” and the Colony formation (DU145 [2]; p < 0.01) was “significantly decreased”. The Transwell migration (PC-3 [3]; 0.5 μM) was “not significantly altered”, the Transwell migration (PC-3 [3]; 1 or 2 μM, p < 0.05) was “significantly decreased” and the IC50 (DU145 [4]; Homo sapiens, DU-145, MTT assay) was < 1 µM. For the same compound, the IC50 (DU145 [4]; MTT assay) was 0.5 ± 0.2 µM, the “Percentage of cells in G1” value (PC-3 [5]) was “significant decrease” and the “Percentage of cells in the G2 phase” value (PC-3 [5]) was “significant increase”. For the same compound, the “Reactive oxygen species (ROS) level” value (PC-3 [6]) was “elevated ROS levels”, the “Reactive oxygen species (ROS) level” value (DU145 [7]) was “significantly higher levels” and the “Expression levels of N-cadherin” value ([8]; 1 and 2 µM) was “did not significantly alter”. The “Accumulation of lower molecular weight β-catenin fragments (P3, P4)” value ([8]; DU145, 1 or 2 μM, 24 h) was “increased the accumulation”, the “Fragmentation of full-length β-catenin (p92) into lower molecular weight fragments (≈70 kDa)” value ([8]; DU145, 1 or 2 μM, 24 h) was “significant fragmentation” and the “Levels of E-cadherin” value ([8]; DU145, 1 or 2 μM, 24 h) was “did not significantly alter”. For the same compound, the “Levels of Wnt 5a” value ([8]; DU145, 1 or 2 μM, 24 h) was “no significant change”, the “Levels of nuclear c-Myc” value ([8]; DU145, 1 or 2 μM, 24 h) was “significantly decreased” and the “Levels of total active β-catenin” value ([8]; DU145, 1 or 2 μM, 24 h) was “significant decrease”. For the same compound, the “Nuclear levels of Naked 1” value ([8]; DU145, 1 or 2 μM, 24 h) was “significantly increased”, the “Nuclear levels of Naked 2” value ([8]; DU145, 1 or 2 μM, 24 h) was “significantly increased” and the “Nuclear levels of cyclin B1” value ([8]; DU145, 1 or 2 μM, 24 h) was “not significantly altered”. For the same compound, the “Levels of cytosolic Naked 1” value ([8]; DU145, 1 or 2 μM, 24 h, p < 0.001) was “significantly decreased”, the “Cytosolic levels of cyclin B1” value [8, 9] was “decreased significantly” and the “Levels of DVL3” value [8, 9] was “significantly decreased”. For the same compound, the “Levels of cytosolic Naked 2” value [8, 9] was “significantly decreased”, the “Levels of phosphorylated LRP-6 (P-LRP-6)” value [8, 9] was “significantly decreased” and the “Levels of LRP-6” value ([8]; DU145, 1 or 2 μM, 24 h, p < 0.05) was “significantly decreased”. For the same compound, the IC50 (HCT115) was 0.7 ± 0.2 µM.

Reference: publication PMC6563099, “Novel Thienopyrimidine Derivative, RP-010, Induces β-Catenin Fragmentation and Is Efficacious against Prostate Cancer Cells” (Cancers, 2019)
